Data reported in patent US20120189641A1, “COMBINATION ANTI-CANCER THERAPY” (OSI PHARMACEUTICALS, LLC, priority 2009, published 2012).
“Also recorded” adds a separate entry of the source.

Legend:
IGF-1R and IR = experiment: Biochemical potency against IGF-1R and IR; settings: comparison of IGF-1R and IR
Akt pathway = experiment: Downstream signaling (pAkt, pErk) in tumor cell lysates, Western blotting; assay type: cell-based, human; settings: H322 NSCLC and HT-29 CRC cells; OSI-906 3 uM or MAB-391 2 ug/ml; 24 hours
Procedure: Cell extracts were prepared by detergent lysis (50 mM Tris-HCl, pH 8.0, 150 mM NaCl, 1% NP-40, 0.5% sodium deoxycholate, 0.1% SDS, containing protease inhibitor (P8340, Sigma, St. Louis, Mo.) and phosphatase inhibitor (P5726, Sigma, St. Louis, Mo.) cocktails. The soluble protein concentration was determined by micro-BSA assay (Pierce, Rockford Ill.). Protein immunodetection was performed by electrophoretic transfer of SDS-PAGE separated proteins to nitrocellulose, incubation with antibody, and chemiluminescent second step detection (PicoWest; Pierce, Rockford, Ill.). The antibodies included: phospho-Akt(473) and total Akt. Both antibodies were obtained from Cell Signaling Technology, Inc. (Danvers, Mass.). For analysis of an agent's effect on the phosphorylation of downstream signaling proteins, cell lines were grown to approximately 70% confluency, at which time the indicated agent was added at the indicated concentration, and cells were incubated at 37° C. for 24 hours. The media was removed, cells were washed two times with PBS, and cells were lysed as previously described.

IGF-1R = biological target: T1, IGF-1R (Homo sapiens, UniProt P08069); experiment: IGF-1R phosphorylation (pIGF-1R) in tumor cells, RTK capture array; assay type: cell-based; settings: OSI-906 3 uM, 24 hours
T1 construct: endogenous in cells; host or cells: A673, H322, HT-29 tumor cells
T1 sequence (P08069 31-1367): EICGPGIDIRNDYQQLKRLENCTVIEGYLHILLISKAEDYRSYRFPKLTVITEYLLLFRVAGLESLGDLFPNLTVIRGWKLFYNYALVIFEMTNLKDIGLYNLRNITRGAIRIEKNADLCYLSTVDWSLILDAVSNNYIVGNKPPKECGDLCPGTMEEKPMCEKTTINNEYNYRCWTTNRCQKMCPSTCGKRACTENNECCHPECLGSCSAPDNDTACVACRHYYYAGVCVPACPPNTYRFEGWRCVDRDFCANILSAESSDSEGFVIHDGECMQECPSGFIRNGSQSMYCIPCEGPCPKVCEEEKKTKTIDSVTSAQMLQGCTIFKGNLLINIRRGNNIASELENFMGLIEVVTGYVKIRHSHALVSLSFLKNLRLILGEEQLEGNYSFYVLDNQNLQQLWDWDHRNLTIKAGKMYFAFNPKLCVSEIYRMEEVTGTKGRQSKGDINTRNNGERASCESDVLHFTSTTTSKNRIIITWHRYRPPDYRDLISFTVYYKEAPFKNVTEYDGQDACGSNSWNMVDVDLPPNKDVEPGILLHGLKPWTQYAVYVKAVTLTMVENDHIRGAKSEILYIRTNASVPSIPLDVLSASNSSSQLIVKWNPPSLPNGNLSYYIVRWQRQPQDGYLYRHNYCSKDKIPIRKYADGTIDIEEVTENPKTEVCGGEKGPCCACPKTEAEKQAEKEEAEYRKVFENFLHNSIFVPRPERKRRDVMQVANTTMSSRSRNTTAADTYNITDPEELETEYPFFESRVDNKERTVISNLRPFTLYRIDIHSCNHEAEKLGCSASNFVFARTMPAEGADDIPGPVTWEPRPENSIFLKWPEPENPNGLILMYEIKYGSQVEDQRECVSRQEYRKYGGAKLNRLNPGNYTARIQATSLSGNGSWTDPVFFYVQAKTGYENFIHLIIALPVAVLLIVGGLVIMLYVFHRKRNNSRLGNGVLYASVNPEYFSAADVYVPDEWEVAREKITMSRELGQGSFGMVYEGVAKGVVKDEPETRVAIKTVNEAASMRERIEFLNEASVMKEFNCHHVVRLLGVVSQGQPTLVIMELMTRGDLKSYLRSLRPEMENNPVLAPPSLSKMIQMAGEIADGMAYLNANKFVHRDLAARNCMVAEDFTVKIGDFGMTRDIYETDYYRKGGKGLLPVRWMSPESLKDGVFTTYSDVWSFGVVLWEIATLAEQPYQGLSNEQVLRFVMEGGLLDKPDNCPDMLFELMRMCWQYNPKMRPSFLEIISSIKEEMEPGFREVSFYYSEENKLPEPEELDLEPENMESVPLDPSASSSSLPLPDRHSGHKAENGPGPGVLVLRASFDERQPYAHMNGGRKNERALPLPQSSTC
Excerpt: The media was removed, cells were washed two times with PBS, and cells were lysed as previously described.

C[C@]1(O)C[C@@H](c2nc(-c3ccc4ccc(-c5ccccc5)nc4c3)c3c(N)nccn32)C1 [OSI-906, cis-3-[8-amino-1-(2-phenyl-quinolin-7-yl)-imidazo[1,5-a]pyrazin-3-yl]-1-methyl-cyclobutanol]
biochemical potencies against IGF-1R and IR (IGF-1R and IR): similar
inhibition of the Akt pathway (pAkt) (Akt pathway): greater blockade of the Akt pathway; also recorded: greater capacity to inhibit the Akt pathway
inhibition of IGF-1R (pIGF-1R) (IGF-1R; A673 Ewing's Sarcoma cells): inhibits both IR and IGF-1R
inhibition of pIGF-1R (IGF-1R; H322 and HT-29 cells (FIG. 2)): robust inhibition of both pIR and pIGF-1R
